The series can be described thus: Stability test of Compound B and its mixtures with fillers (1:10). Type of series: physicochemical. The method, then:
The Compound B was mixed respectively with cellulose-lactose (cellactose 80), a simple mixture of cellulose and lactose (75%:25%), spray-dried lactose (Flowlac 100), microcrystalline cellulose PH302, or microcrystalline cellulose PH102 in a ratio of 1:10. The above mixtures and Compound B were placed respectively under conditions of 40° C./RH75%/open, 40° C./RH75%/closed, or 60° C./closed for 2 weeks and 4 weeks.

From US11116752B2, “Pharmaceutical composition comprising bicyclo-substituted pyrazolon azo derivative or salt thereof and preparation method thereof” (Jiangsu Hengrui Medicine Co., Ltd., priority 2016, dated 2021) come the findings set out here.

With `CC1=NN(c2ccc3c(c2)CCCC3)C(=O)/C1=N\Nc1cccc(-c2ccc(C(=O)O)o2)c1O` [Compound B, (Z)-5-(2-hydroxy-3-(2-(3-methyl-5-oxo-1-(5,6,7,8-tetrahydronaphthalen-2-yl)-1H-pyrazol-4(5H)-ylidene)hydrazino)phenyl)furan-2-carboxylic acid], the Appearance entry (40° C./RH75%/closed, 2 Weeks) is on record as “Dark red powder”; the Appearance result (40° C./RH75%/closed, 4 Weeks) is reported as “Dark red powder”; the Appearance result (40° C./RH75%/open, 2 Weeks) is listed as “Dark red mass”; the Appearance result (40° C./RH75%/open, 4 Weeks) is reported as “Dark red mass”; the Appearance result (60° C./closed, 2 Weeks) is reported as “Dark red mass”; the Appearance result (60° C./closed, 4 Weeks) is “Dark red mass”. Where the note is “Initial point, 0 Day”, the Appearance result is recorded as “Dark red powder”. Besides, the “Related substances (%)” value is, setting by setting: (40° C./RH75%/closed, 2 Weeks) 1.08%; (40° C./RH75%/closed, 4 Weeks) 1.18%; (40° C./RH75%/open, 2 Weeks) 1.32%; (40° C./RH75%/open, 4 Weeks) 1.93%; (60° C./closed, 2 Weeks) 3.05%; (60° C./closed, 4 Weeks) 4.84%. Besides, the “Related substances (%)” value (Initial point, 0 Day) stood at 0.90%.
